Reference: ChEMBL document CHEMBL1156616, “Syntheses and biological evaluation of topoisomerase I-targeting agents related to 11-[2-(N,N-dimethylamino)ethyl]-2,3-dimethoxy-8,9-methylenedioxy-11H-isoquino[4,3-c]cinnolin-12-one (ARC-31)” (Bioorg Med Chem, 2008)

Legend:
[1] = tested on: MDA-MB-231; test: Antitumor activity against human MDA-MB-231 cells xenografted in athymic nude mouse assessed as tumor volume on day 21 at initial dose of 3.0 mg/kg, po qd X 5/week for 2 weeks and dose adjustments were made based upon effect or lack of effect on average body weight (72.5 mg/kg total dose); type: functional
[2] = tested on: MDA-MB-231; test: Antitumor activity against human MDA-MB-231 cells xenografted in athymic nude mouse assessed as tumor volume on day 7 at initial dose of 2.0 mg/kg, ip qd X 5/week for 2 weeks and dose adjustments were made based upon effect or lack of effect on average body weight (32.5 mg/kg total dose); type: functional; settings: route intraperitoneal
[3] = Cytotoxicity against human RPMI8402 cells after 4 days by MTT assay; type: functional, cell-based; settings: RPMI 8402, 96 h
[4] = tested on: P388; test: Cytotoxicity against mouse CPT45-resistant topoisomerase 1-deficient P388 cells after 4 days by MTT assay; type: functional, cell-based; settings: P388, 96 h
[5] = Cytotoxicity against human multidrug resistant BCRP overexpressing human KBH5.0 cells after 4 days by MTT assay; type: functional, cell-based; settings: KBH5.0 cell, 96 h
[6] = Cytotoxicity against human multidrug resistant MDR1 overexpressing human KBV1 cells after 4 days by MTT assay; type: functional, cell-based; settings: KB-V1, 96 h
[7] = tested on: MDA-MB-231; test: Antitumor activity against human MDA-MB-231 cells xenografted in athymic nude mouse assessed as tumor volume on day 14 at initial dose of 2.0 mg/kg, ip qd X 5/week for 2 weeks and dose adjustments were made based upon effect or lack of effect on average body weight (32.5 mg/kg total dose); type: functional; settings: route intraperitoneal
[8] = tested on: MDA-MB-231; test: Antitumor activity against human MDA-MB-231 cells xenografted in athymic nude mouse assessed as tumor volume on day 31 at initial dose of 3.0 mg/kg, po qd X 5/week for 2 weeks and dose adjustments were made based upon effect or lack of effect on average body weight (72.5 mg/kg total dose); type: functional
[9] = Cytotoxicity against human camptothecin-resistant CPT-K5 cells after 4 days by MTT assay; type: functional, cell-based; settings: CPT-K5, 96 h
[10] = tested on: P388; test: Cytotoxicity against mouse P388 cells after 4 days by MTT assay; type: functional, cell-based; settings: P388, 96 h
[11] = molecular target: T1, DNA topoisomerase 1 (Homo sapiens) (UniProt P11387); test: Inhibition of human topoisomerase 1 expressed in Escherichia coli assessed as YepG plasmid DNA cleavage
T1 sequence (whole entry): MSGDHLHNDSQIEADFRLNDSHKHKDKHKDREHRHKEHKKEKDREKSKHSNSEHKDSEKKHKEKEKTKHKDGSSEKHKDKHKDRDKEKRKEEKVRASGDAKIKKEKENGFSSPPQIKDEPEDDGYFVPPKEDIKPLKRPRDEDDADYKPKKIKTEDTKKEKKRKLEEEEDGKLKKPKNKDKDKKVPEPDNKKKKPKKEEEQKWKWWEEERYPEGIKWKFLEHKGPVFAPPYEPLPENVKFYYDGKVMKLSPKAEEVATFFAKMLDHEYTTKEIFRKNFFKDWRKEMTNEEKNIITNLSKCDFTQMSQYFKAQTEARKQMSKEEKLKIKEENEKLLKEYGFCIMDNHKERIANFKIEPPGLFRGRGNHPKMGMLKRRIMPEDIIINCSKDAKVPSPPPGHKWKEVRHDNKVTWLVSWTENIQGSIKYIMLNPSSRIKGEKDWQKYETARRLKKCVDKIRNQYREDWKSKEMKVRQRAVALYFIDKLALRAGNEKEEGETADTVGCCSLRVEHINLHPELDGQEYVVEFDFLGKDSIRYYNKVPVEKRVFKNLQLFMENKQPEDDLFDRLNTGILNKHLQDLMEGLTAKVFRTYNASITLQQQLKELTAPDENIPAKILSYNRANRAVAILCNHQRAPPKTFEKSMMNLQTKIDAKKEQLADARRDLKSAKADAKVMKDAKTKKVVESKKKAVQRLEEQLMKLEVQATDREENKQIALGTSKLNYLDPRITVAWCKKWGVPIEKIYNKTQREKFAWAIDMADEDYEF

[12] = Cytotoxicity against human KB3-1 cells after 4 days by MTT assay; type: functional, cell-based; settings: KB 3-1, 96 h
[13] = tested on: MDA-MB-231; test: Antitumor activity against human MDA-MB-231 cells xenografted in athymic nude mouse assessed as tumor volume on day 7 at initial dose of 3.0 mg/kg, po qd X 5/week for 2 weeks and dose adjustments were made based upon effect or lack of effect on average body weight (72.5 mg/kg total dose); type: functional
[14] = tested on: MDA-MB-231; test: Antitumor activity against human MDA-MB-231 cells xenografted in athymic nude mouse assessed as tumor volume on day 31 at initial dose of 2.0 mg/kg, ip qd X 5/week for 2 weeks and dose adjustments were made based upon effect or lack of effect on average body weight (32.5 mg/kg total dose); type: functional; settings: route intraperitoneal
[15] = tested on: MDA-MB-231; test: Antitumor activity against human MDA-MB-231 cells xenografted in athymic nude mouse assessed as tumor volume on day 21 at initial dose of 2.0 mg/kg, ip qd X 5/week for 2 weeks and dose adjustments were made based upon effect or lack of effect on average body weight (32.5 mg/kg total dose); type: functional; settings: route intraperitoneal
[16] = tested on: MDA-MB-231; test: Antitumor activity against human MDA-MB-231 cells xenografted in athymic nude mouse assessed as tumor volume on day 14 at initial dose of 3.0 mg/kg, po qd X 5/week for 2 weeks and dose adjustments were made based upon effect or lack of effect on average body weight (72.5 mg/kg total dose); type: functional
[17] = tested on: MDA-MB-231; test: Antitumor activity against human MDA-MB-231 cells xenografted in athymic nude mouse assessed as tumor volume on day 21 at initial dose of 2.0 mg/kg, po qd X 4/week and dose adjustments were made based upon effect or lack of effect on average body weight (29.3 mg/kg total dose); type: functional
[18] = tested on: MDA-MB-231; test: Antitumor activity against human MDA-MB-231 cells xenografted in athymic nude mouse assessed as tumor volume on day 31 at initial dose of 2.0 mg/kg, po qd X 4/week and dose adjustments were made based upon effect or lack of effect on average body weight (29.3 mg/kg total dose); type: functional
[19] = tested on: MDA-MB-231; test: Antitumor activity against human MDA-MB-231 cells xenografted in athymic nude mouse assessed as tumor volume on day 14 at initial dose of 1.0 mg/kg, ip qd X 4/week and dose adjustments were made based upon effect or lack of effect on average body weight (14.6 mg/kg total dose); type: functional; settings: route intraperitoneal
[20] = tested on: MDA-MB-231; test: Antitumor activity against human MDA-MB-231 cells xenografted in athymic nude mouse assessed as tumor volume on day 31 at initial dose of 1.0 mg/kg, ip qd X 4/week and dose adjustments were made based upon effect or lack of effect on average body weight (14.6 mg/kg total dose); type: functional; settings: route intraperitoneal
[21] = tested on: MDA-MB-231; test: Antitumor activity against human MDA-MB-231 cells xenografted in athymic nude mouse assessed as tumor volume on day 7 at initial dose of 2.0 mg/kg, po qd X 4/week and dose adjustments were made based upon effect or lack of effect on average body weight (29.3 mg/kg total dose); type: functional
[22] = tested on: MDA-MB-231; test: Antitumor activity against human MDA-MB-231 cells xenografted in athymic nude mouse assessed as tumor volume on day 7 at initial dose of 1.0 mg/kg, ip qd X 4/week and dose adjustments were made based upon effect or lack of effect on average body weight (14.6 mg/kg total dose); type: functional; settings: route intraperitoneal
[23] = tested on: MDA-MB-231; test: Antitumor activity against human MDA-MB-231 cells xenografted in athymic nude mouse assessed as tumor volume on day 14 at initial dose of 2.0 mg/kg, po qd X 4/week and dose adjustments were made based upon effect or lack of effect on average body weight (29.3 mg/kg total dose); type: functional
[24] = tested on: MDA-MB-231; test: Antitumor activity against human MDA-MB-231 cells xenografted in athymic nude mouse assessed as tumor volume on day 21 at initial dose of 1.0 mg/kg, ip qd X 4/week and dose adjustments were made based upon effect or lack of effect on average body weight (14.6 mg/kg total dose); type: functional; settings: route intraperitoneal

Row | SMILES | IC50 [3] [nM] | IC50 [4] [nM] | IC50 [5] [nM] | IC50 [6] [nM] | IC50 [9] [nM] | IC50 [10] [nM] | REC [11] | IC50 [12] [nM] | other results
1 | CNCCn1c(=O)c2cc(OC)c(OC)cc2c2nnc3cc4c(cc3c21)OCO4 | 3 | 200 | 18 | 23 | 230 | 1 | 0.03 | 0.7 | Activity [1]: 144 mm3; Activity [2]: 146 mm3; Activity [7]: 129 mm3; Activity [8]: 177 mm3; Activity [13]: 116 mm3; Activity [14]: 104 mm3; Activity [15]: 109 mm3; Activity [16]: 113 mm3
2 | COc1cc2c(=O)n(CCNC(CO)(CO)CO)c3c4cc5c(cc4nnc3c2cc1OC)OCO5 | 65 | 3000 | 400 | 280 | 5700 | 40 | 0.2 | 50 | –
3 | COc1cc2c(=O)n(CCN(C)C)c3c4cc5c(cc4nnc3c2cc1OC)OCO5 | 2 | 230 | 4 | 4 | 740 | 2 | 0.3 | 5 | –
4 | COc1cc2c(=O)n(CCN(C)Cc3ccccc3)c3c4cc5c(cc4nnc3c2cc1OC)OCO5 | 40 | 2800 | 40 | 85 | > 10000 | 25 | 0.4 | 35 | –
5 | COc1cc2c(=O)n(CCO)c3c4cc5c(cc4nnc3c2cc1OC)OCO5 | 13 | 700 | 55 | 18 | 1300 | 12 | 0.3 | 10 | –
6 | COc1cc2c(=O)n(CCN(C)C)c3c4cc5c(cc4ncc3c2cc1OC)OCO5 | 2 | – | 12 | 15 | 900 | – | 0.3 | 5 | –
7 | COc1cc2c(=O)n(CCN(Cc3ccccc3)C(C)C)c3c4cc5c(cc4nnc3c2cc1OC)OCO5 | 45 | 2300 | 40 | 75 | 3300 | 21 | 0.5 | 16 | –
8 | CC[C@@]1(O)C(=O)OCc2c1cc1n(c2=O)Cc2cc3ccccc3nc2-1 [CAMPTOTHECIN] | 5 | > 10000 | – | – | – | 9 | 0.2 | 15 | –
9 | COc1cc2c(=O)n(CCNC(C)C)c3c4cc5c(cc4nnc3c2cc1OC)OCO5 | 3 | 110 | 2 | 7 | 300 | 2 | 0.08 | 0.5 | Activity [17]: 185 mm3; Activity [18]: 253 mm3; Activity [19]: 112 mm3; Activity [20]: 231 mm3; Activity [21]: 82 mm3; Activity [22]: 72 mm3; Activity [23]: 92 mm3; Activity [24]: 150 mm3
10 | COc1cc2c(=O)n(CCN(C)CCN(C)C)c3c4cc5c(cc4nnc3c2cc1OC)OCO5 | 33 | 300 | 250 | 180 | 2200 | 19 | 0.4 | 17 | –
11 | COc1cc2c(=O)n(CCn3ccnc3)c3c4cc5c(cc4nnc3c2cc1OC)OCO5 | 400 | > 10000 | 3300 | 3300 | > 10000 | 190 | 0.1 | 380 | –
